Test results as given in PMC8426295, “Cytotoxic and radiosensitising effects of a novel thioredoxin reductase inhibitor in breast cancer” (Investigational New Drugs, 2021).

Columns and labels:
MCF-7 cells [1] = assay: Cell proliferation assay (cell count); type: cell-based; settings: Homo sapiens, MCF7, 48 h
Description: (§1) 1 × 10^5 cells (2 × 10^5 for T47D’s) were seeded, in triplicate, in 6-well plates and incubated overnight before being treated with IQ9 (0–5000 nM) or doxorubicin (400–600 nM) (positive control and comparator). Total cells were counted after 48 h using a haemocytometer. The total cell count in drug treatment wells was normalised as a percentage of the total cells in vehicle control wells.
(§2) IC50 values were calculated from dose-response curves using an SPSS regression model between inhibition ratios and concentration gradients. The radiobiological parameters: alpha (α), beta (β), α/β ratio, and surviving fraction at 2 Gy (SF2) were extracted from the survival curves fitted using the LQ model. All results are presented as average ± standard deviation (SD) of three independent experiments, each performed in triplicate. Data were analysed using the student T-test and ANOVA one-way test. Statistical analysis was performed using SPSS 23.0 software. Values of P < 0.05 were considered statistically significant.

MDA-MB-231 cells [2] = assay: Cell proliferation assay (cell count); type: cell-based; settings: Homo sapiens, MDA-MB-231, 48 h
Description: as §1, §2

MDA-MB-436 cells = assay: Cell proliferation assay (cell count); type: cell-based; settings: Homo sapiens, MDA-MB-436, 48 h
Description: as §1, §2

MDA-MB-468 cells = assay: Cell proliferation assay (cell count); type: cell-based; settings: Homo sapiens, MDA-MB-468, 48 h
Description: as §1, §2

T47D cells [3] = assay: Cell proliferation assay (cell count); type: cell-based; settings: Homo sapiens, 48 h
Description: as §1, §2

MCF-7 cells [4] = assay: Drug-radiation combination clonogenic survival (LQ model); type: cell-based, human; settings: 1000 nM IQ9 for 4 h followed by irradiation
Description: (§3) 5 × 10^5 cells were seeded in T25 cm^2 tissue culture flasks and incubated overnight. The sub-confluent cells were then treated either for 4-h or 48-h with IQ9 (0–5000 nM) or doxorubicin (10–20 nM). Following drug treatment, cells were collected, counted, and plated at low-density, in triplicate, and incubated, at 37 °C, 5% CO2, undisturbed, for 2 weeks for TNBC cells and 3 weeks for luminal cells, for colony formation. Colonies were fixed (50% methanol in 0.9% saline solution) and stained (0.5% crystal violet solution). Colonies consisting of more than 50 cells were confirmed by microscopy and scored as survivors. The plating efficiency (PE) was calculated as numbers of colonies formed/ numbers of cells plated. For single-agent treatment, drug or radiation, the surviving fraction was calculated as: number of colonies formed/ (numbers of cell plated x PE). For drug radiation combination experiments, cytotoxicity of drug treatment was accounted for by calculating surviving fraction as: number of colonies formed from each radiation dose/ (number of cells plated × PE × surviving fraction of drug-treated cell at 0 Gy).
(§4) Sub-confluent cells were irradiated with a dose of 2, 4, 6, or 8 Gy (at a dose rate of 0.87 Gy/min) using an RS225 x-ray cabinet irradiation system (Xstrahl Limited, UK), fitted with a 0.5 mm Cu filter and run at 195 kV, 10 mA. Following irradiation, cells were immediately trypsinised and plated for clonogenic survival. Sham-irradiated cells were used as controls. Dose-response curves were plotted as a function of radiation dose on a log/ linear plot. Clonogenic survival calculation software (CS-CAL), developed by the Translational Radiation Oncology Group, German Cancer Research Centre was used to fit survival curves to the linear-quadratic (LQ) model (equation: […] ). The software can be accessed online at http://angiogenesis.dkfz.de/oncoexpress/software/cs-cal/. For drug-radiation combinations, cells were treated with 1000 nM IQ9 (2500 nM for T47D) for 4 h followed by irradiation (0–8 Gy). For 48 h drug treatment experiments, MDA-MB-231 and T47D cells were treated with clonogenic IC50 concentrations of IQ9 before irradiation. The sensitiser enhancement ratio (SER), calculated by dividing the X-ray dose causing 1% cell survival in the absence of drug treatment by the X-ray dose leading to 1% cell survival in the presence of drug treatment, was used to evaluate the degree of radiosensitisation.
as §2

MDA-MB-231 cells [5] = assay: as above; type: cell-based, human; settings: for SER (sensitiser enhancement ratio): at 1% cell survival
Description: as §3, §4, §2

T47D cells [6] = assay: as above; type: cell-based, human; settings: for SER (sensitiser enhancement ratio): at 1% cell survival
Description: as §3, §4, §2

Trx = assay: Western blotting of Trx expression; type: cell-based, human; settings: 48 h
Description: (§5) Cells were treated with IQ9 (clonogenic IC50 concentrations) for 48 h, harvested, and resuspended in 1 mL of RIPA buffer (Sigma, UK) supplemented with 1X Halt phosphatase inhibitor cocktail, protease inhibitor cocktail, and EDTA. Samples were run on an SDS-polyacrylamide gel and transferred onto a 0.2 μm nitrocellulose membrane (GE Healthcare). The membrane was then blocked using 5% milk powder in 0.1% PBS/ Tween20, for 1 h at room temperature and then incubated with primary antibody overnight at 4 °C. Anti-β-actin antibody (Abcam) was used as a loading control. Primary antibodies were rabbit anti-human Trx (Abcam; 1:1000), mouse anti-human antibody (Abcam; 1:500), and rabbit anti-human Txnip (Abcam; 1:500). For Trx and Txnip, bands were detected using an Odyssey FC Imager (LI-COR). Images were obtained and fluorescence intensity quantified using Image Studio Software (version 4). The signals for Trx and Txnip were normalised against β-actin. For TrxR, bands were detected using an Amersham Enhanced Chemiluminescence system (GE Healthcare).

TrxR = assay: Western blotting of TrxR expression; type: cell-based, human; settings: clonogenic IC50 concentration, 48 h
Description: as §5

Txnip = assay: Western blotting of Txnip expression; type: cell-based, human; settings: any of the breast cancer cell lines, clonogenic IC50 concentration, 48 h
Description: as §5

breast cancer cells = assay: Potency against breast cancer cells (IC50 range, comparison of TrxR inhibitors); type: cell-based; settings: Homo sapiens; range over the cell lines and assays of this study
[7] = 1000 nM IQ9 for 4 h followed by irradiation
[8] = IQ9 exposure 48 h before irradiation
[9] = clonogenic IC50 concentration of IQ9 for 48 h before irradiation
[10] = 2500 nM IQ9 for 4 h followed by irradiation

Compound: COC1=CC(=O)c2c(c(COc3c(F)cc(F)cc3F)cn2C)C1=O [IQ9]
- IC50 (MCF-7 cells [1]): 0.379 ± 0.0424 µM
- IC50 (MDA-MB-231 cells [2]): 0.246 ± 0.0553 µM
- IC50 (MDA-MB-436 cells): 0.171 ± 0.0814 µM
- IC50 (MDA-MB-468 cells): 0.425 ± 0.155 µM
- IC50 (T47D cells [3]): 1.43 ± 0.255 µM
- SF2 (surviving fraction at 2 Gy) (MCF-7 cells [4]): 0.24 ± 0.10
- α (MCF-7 cells [4]): 0.58 ± 0.18 Gy^−1
- α/β Ratio (MCF-7 cells [4]): 7.25 ± 3.19
- β (MCF-7 cells [4]): 0.08 ± 0.02 Gy^−2
- SER (sensitiser enhancement ratio) (MCF-7 cells [4]; at 1% cell survival): 1.08
- SF2 (surviving fraction at 2 Gy) (MDA-MB-231 cells [5]; [7]): 0.21 ± 0.02
- α (MDA-MB-231 cells [5]; [7]): 0.70 ± 0.17 Gy^−1
- α/β Ratio (MDA-MB-231 cells [5]; [7]): 11.67 ± 3.63
- β (MDA-MB-231 cells [5]; [7]): 0.06 ± 0.01 Gy^−2
- SER (sensitiser enhancement ratio) (MDA-MB-231 cells [5]; [7]): 1.20
- radiosensitivity (in words) (MDA-MB-231 cells [5]; [8]): no significant increase in radiosensitivity
- SF2 (surviving fraction at 2 Gy) (MDA-MB-231 cells [5]; [9]): 0.22 ± 0.08
- α (MDA-MB-231 cells [5]; [9]): 0.85 ± 0.04 Gy^−1
- α/β Ratio (MDA-MB-231 cells [5]; [9]): 25.60 ± 4.62
- β (MDA-MB-231 cells [5]; [9]): 0.03 ± 0.01 Gy^−2
- SER (sensitiser enhancement ratio) (MDA-MB-231 cells [5]; [9]): 1.07
- SF2 (surviving fraction at 2 Gy) (T47D cells [6]; [10]): 0.45 ± 0.02
- α (T47D cells [6]; [10]): 0.47 ± 0.04 Gy^−1
- α/β Ratio (T47D cells [6]; [10]): 15.66 ± 1.17
- β (T47D cells [6]; [10]): 0.03 ± 0.00 Gy^−2
- SER (sensitiser enhancement ratio) (T47D cells [6]; [10]): 1.00
- radiosensitivity (in words) (T47D cells [6]; [8]): no significant increase in radiosensitivity
- radiosensitisation (in words) (T47D cells [6]; IQ9 for 4 h followed by irradiation): no altered radiosensitisation
- SF2 (surviving fraction at 2 Gy) (T47D cells [6]; [9]): 0.31 ± 0.04
- α (T47D cells [6]; [9]): 0.40 ± 0.12 Gy^−1
- α/β Ratio (T47D cells [6]; [9]): 7.27 ± 5.53
- β (T47D cells [6]; [9]): 0.05 ± 0.02 Gy^−2
- SER (sensitiser enhancement ratio) (T47D cells [6]; [9]): 1.00
- expression of Trx (Trx; MDA-MB-231, clonogenic IC50 concentration, P = 0.003): increased expression
- expression of Trx (Trx; the other four cell lines (MDA-MB-468, MDA-MB-436, T47D, MCF-7), clonogenic IC50 concentration): no effect
- expression of TrxR (TrxR; TNBC cells): little effect, if any
- expression of TrxR (TrxR; luminal cells): Increased expression
- Txnip expression (Txnip): not affected
- IC50 (breast cancer cells): 0.2 to 2 µM
